Data on 47 molecules can be found in patent US9890138B2, “Diaminopyrimidine derivatives and processes for the preparation thereof” (YUHAN CORPORATION, priority 2011, dated 2018).

In the assay the target is T1, human 5-HT4(a) (Homo sapiens, UniProt Q13639).
T1 construct: host or cells: GeneBlAzer HTR4-CRE-bla CHO-K1 cells
As to the kind of experiment: Evaluation of agonistic activity in CHO-K1 cells expressing human 5-HT4(a) (GeneBlAzer HTR4-CRE-bla CHO-K1, beta-lactamase reporter). The class given is cell-based. The note with it: CHO-K1 cells stably expressing human 5-HT4(a). An outline of the steps: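 Agonism read as CRE-driven β-lactamase activity: emission ratio 465/535 nm (excitation 410 nm) after 2 h substrate loading. Preceded by 5 h compound treatment, 8 concentrations, 1% DMSO in the added solution, of overnight-plated reporter CHO-K1 cells; EC50 by non-linear regression.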

Where a name gives a salt, the structure may show the parent alone.

T1 sequence (Q13639 1-387 isoform Q13639-2): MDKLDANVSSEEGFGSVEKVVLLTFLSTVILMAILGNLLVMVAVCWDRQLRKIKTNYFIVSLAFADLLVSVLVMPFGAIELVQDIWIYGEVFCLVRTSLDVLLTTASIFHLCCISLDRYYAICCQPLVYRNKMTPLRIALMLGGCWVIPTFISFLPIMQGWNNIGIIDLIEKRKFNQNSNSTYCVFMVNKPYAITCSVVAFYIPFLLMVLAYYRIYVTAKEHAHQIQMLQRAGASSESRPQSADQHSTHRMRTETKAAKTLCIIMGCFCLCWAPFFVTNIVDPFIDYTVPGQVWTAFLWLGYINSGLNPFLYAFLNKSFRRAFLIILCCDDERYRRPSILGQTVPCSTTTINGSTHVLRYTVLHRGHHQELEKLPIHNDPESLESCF

In general, EC50 refers to the concentration needed to bring the measured effect to its halfway point. A low value points to a more potent agent. As for `CCCCc1cc(N2CC[C@H](NCC)C2)nc(Nc2ccc(F)c([N+](=O)[O-])c2)n1` [Example 463], the response was half-maximal at 0.0021 nM (EC50).
Regarding `CCCc1cc(N2CC[C@H](NCC3CC3)C2)nc(Nc2cccc(SC)c2)n1` [Example 378], the EC50 turned out to be 0.015 nM.
`CCCc1cc(N2CC[C@H](NC3CCNCC3)C2)nc(Nc2cccc(C#N)c2)n1` [Example 221, (S)-3-{4-[3-(piperidin-4-ylamino)pyrrolidin-1-yl]-6-propylpyrimidin-2-ylamino}benzonitrile] displayed an EC50 of 0.149 nM.
To `CCCCc1cc(N2CC[C@H](NC)C2)nc(Nc2ccc(C)c([N+](=O)[O-])c2)n1` [Example 448] belongs 0.0025 nM; to `CCCN[C@H]1CCN(c2cc(CCC)nc(Nc3cccc(C#N)c3)n2)C1` [Example 85, (S)-3-{4-propyl-6-[3-(propylamino)pyrrolidin-1-yl]pyrimidin-2-ylamino}benzonitrile], 0.003 nM.
To `CCCc1cc(N2CC[C@H](NCC3CC3)C2)nc(Nc2cc(Cl)ccc2C)n1` [Example 380] belongs 0.009 nM.
The molecule `CCCc1cc(N2CCC[C@H]2CO)nc(Nc2ccc(Cl)c(N)c2)n1` [Example 401] had an EC50 of 0.073 nM.
To `CCCc1cc(N2CC[C@H](NCCCc3ccccc3)C2)nc(Nc2cccc(C#N)c2)n1` [Example 89, (S)-3-{4-[3-(3-phenylpropylamino)pyrrolidin-1-yl]-6-propylpyrimidin-2-ylamino}benzonitrile] belongs 0.08 nM; to `CCCc1cc(N2CC[C@H](NC(C)C)C2)nc(Nc2cccc(C#N)c2)n1` [Example 138, (S)-3-{4-[3-(isopropylamino)pyrrolidin-1-yl]-6-propylpyrimidin-2-ylamino}benzonitrile], 0.012 nM; to `CCCc1cc(N2CC[C@H](NC)C2)nc(Nc2ccc(N)c(C(F)(F)F)c2)n1` [Example 123, (S)-N^1-{4-[3-(methylamino)pyrrolidin-1-yl]-6-propylpyrimidin-2-yl}-3-(trifluoromethyl)benzene-1,4-diamine dihydrochloride], 0.0019 nM.
Regarding `CCCc1cc(N2CC[C@H](NC(=O)CCN(C)C)C2)nc(Nc2cccc(C#N)c2)n1` [Example 161], the EC50 was 0.119 nM.
To `CCCc1cc(N2CC[C@H](NC(=O)NCC)C2)nc(Nc2ccc(C)c(C#N)c2)n1` [Example 433] belongs 0.055 nM; to `CCCc1cc(N2CC[C@H](N)C2)nc(Nc2cccc(C(F)(F)F)c2)n1` [Example 347, (S)-4-(3-aminopyrrolidin-1-yl)-6-propyl-N-[3-(trifluoromethyl)phenyl]pyrimidin-2-amine dihydrochloride], 0.03 nM.
To `CCCc1cc(N2CCC[C@H]2COC)nc(Nc2ccc(F)c(C#N)c2)n1` [Example 43, (S)-2-fluoro-5-{4-[2-(methoxymethyl)pyrrolidin-1-yl]-6-propylpyrimidin-2-ylamino}benzonitrile] belongs 0.178 nM.
Molecule `CCCc1cc(N2CC[C@H](NS(C)(=O)=O)C2)nc(Nc2ccc(C)c(C#N)c2)n1` [Example 431, (S)—N-{1-[2-(3-cyano-4-methylphenylamino)-6-propylpyrimidin-4-yl]pyrrolidin-3-yl}methanesulfonamide] gave an EC50 of 0.029 nM.
`CCCc1cc(N2CCC[C@H]2C)nc(Nc2ccc(Cl)c([N+](=O)[O-])c2)n1` [Example 313, (R)—N-(4-chloro-3-nitrophenyl)-4-(2-methylpyrrolidin-1-yl)-6-propylpyrimidin-2-amine] had a half-maximal effective concentration (EC50) of 0.078 nM.
The figure for “(S)-3-amino-5-[4-(3-aminopyrrolidin-1-yl)-6-propylpyrimidin-2-amino]benzonitrile [Example 362]” is 0.0021 nM; for `CCCc1cc(N2CC[C@H](NCC3CC3)C2)nc(Nc2ccc(F)c([N+](=O)[O-])c2)n1` [Example 373] it is 0.0043 nM.
`CCCc1cc(N2CCC(NC(C)=O)C2)nc(Nc2ccc(F)c(N)c2)n1` (centres unmarked) [Example 312] registered an EC50 of 0.023 nM.
To `CCCc1cc(N2CC[C@H](NCCc3ccccc3)C2)nc(Nc2cccc(C#N)c2)n1` [Example 88, (S)-3-{4-[3-(phenethylamino)pyrrolidin-1-yl]-6-propylpyrimidin-2-ylamino}benzonitrile] belongs 0.041 nM; to `CCCCc1cc(N2CC[C@H](NCC)C2)nc(Nc2ccc(N)c([N+](=O)[O-])c2)n1` [Example 461], 0.0019 nM.
The figure for `CCCc1cc(N2CC[C@H](NC(C)=O)C2)nc(Nc2ccc(F)c([N+](=O)[O-])c2)n1` [Example 248, (S)—N-{1-[2-(4-fluoro-3-nitrophenylamino)-6-propylpyrimidin-4-yl]pyrrolidin-3-yl}acetamide] is 0.016 nM; for `CCCc1cc(N2CC[C@H](NC(C)=O)C2)nc(Nc2ccc(C)c(N)c2)n1` [Example 493, (S)-N-{1-[2-(3-amino-4-methylphenylamino)-6-propylpyrimidin-4-yl]pyrrolidin-3-yl}acetamide hydrochloride] it is 0.024 nM.
In the case of `CCCCc1cc(N2CC[C@H](NCC)C2)nc(Nc2ccc(F)c(C(F)(F)F)c2)n1` [Example 468], the half-maximal effective concentration (EC50) is 0.0062 nM.
The figure for `CCCCc1cc(N2CC[C@H](NC)C2)nc(Nc2cccc(C#N)c2)n1` [Example 226] is 0.052 nM; for `CCCc1cc(N2CCC(NC(C)=O)C2)nc(Nc2ccc3c(C)cc(=O)oc3c2)n1` (centres unmarked) [Example 309] it is 0.076 nM.
The figure for `CCCc1cc(N2CC[C@H](NC(=O)C(C)(C)O)C2)nc(Nc2cccc(C#N)c2)n1` [Example 153, (S)-N-{1-[2-(3-cyanophenylamino)-6-propylpyrimidin-4-yl]pyrrolidin-3-yl}-2-hydroxy-2-methylpropanamide] is 0.228 nM.
The figure for `CCCc1cc(N2CC[C@H](NC(=O)CO)C2)nc(Nc2ccc(F)c(C(F)(F)F)c2)n1` [Example 477] is 0.0096 nM; for `CCCc1cc(N2CCC[C@H]2COC)nc(Nc2cccc(C#N)c2)n1` [Example 34, (S)-3-{4-[2-(methoxymethyl)pyrrolidin-1-yl]-6-propylpyrimidin-2-ylamino}benzonitrile] it is 0.16 nM.
Molecule `CCCc1cc(N2CC[C@H](NC(=O)Cc3ccncc3)C2)nc(Nc2cccc(C#N)c2)n1` [Example 78, (S)-N-{1-[2-(3-cyanophenylamino)-6-propylpyrimidin-4-yl]pyrrolidin-3-yl}-2-(pyridin-4-yl)acetamide] displayed an EC50 of 0.28 nM.
To `CCCc1cc(N2CC[C@H](O)C2)nc(Nc2cccc(C#N)c2)n1` [Example 52, (S)-3-[4-(3-hydroxypyrrolidin-1-yl)-6-propylpyrimidin-2-ylamino]benzonitrile] belongs 0.33 nM; to `CCCc1cc(N2CCC(NC(C)=O)C2)nc(Nc2cccc(Cl)c2)n1` (centres unmarked) [Example 302], 0.42 nM.
`CCCc1cc(N2CCC[C@H]2CO)nc(Nc2cccc(C(F)(F)F)c2)n1` [Example 203]: the half-maximal effective concentration (EC50) turned out to be 0.3 nM.
To `CCCc1cc(N2CC[C@H](NC(C)=O)C2)nc(Nc2ccc(N)c([N+](=O)[O-])c2)n1` [Example 254, (S)—N-{1-[2-(4-amino-3-nitrophenylamino)-6-propylpyrimidin-4-yl]pyrrolidin-3-yl}acetamide] belongs 0.0015 nM; to `CCCc1cc(N2CC[C@@H](O)C2)nc(Nc2cccc(C#N)c2)n1` [Example 57, (R)-3-[4-(3-hydroxypyrrolidin-1-yl)-6-propylpyrimidin-2-ylamino]benzonitrile], 0.389 nM; to `CCCc1cc(N2CC[C@H](NCc3ccc(CC)cc3)C2)nc(Nc2cccc(C#N)c2)n1` [Example 92, (S)-3-{4-[3-(4-ethylbenzylamino)pyrrolidin-1-yl]-6-propylpyrimidin-2-ylamino}benzonitrile], 0.057 nM.
The figure for `CCCCc1cc(N2CC[C@H](NCC)C2)nc(Nc2ccc(F)c(C#N)c2)n1` [Example 469] is 0.0021 nM.
The figure for `CCCc1cc(N2CC[C@H](NC)C2)nc(Nc2cc(N)cc(C(F)(F)F)c2)n1` [Example 487] is 0.0021 nM; for `CCCc1cc(N2CCC[C@H]2COC)nc(Nc2ccc(F)c(C(F)(F)F)c2)n1` [Example 41, (S)-N-[4-fluoro-3-(trifluoromethyl)phenyl]-4-[2-(methoxymethyl)pyrrolidin-1-yl]-6-propylpyrimidin-2-amine] it is 0.15 nM; for `CCCc1cc(N2CC[C@H](NC(=O)C(C)C)C2)nc(Nc2cccc(C#N)c2)n1` [Example 81, (S)-N-{1-[2-(3-cyanophenylamino)-6-propylpyrimidin-4-yl]pyrrolidin-3-yl}isobutyramide] it is 0.205 nM.
Take `CCCc1cc(N2CC[C@H](NC)C2)nc(Nc2ccc(F)c(C#N)c2)n1` [Example 180]: the EC50 worked out at 0.0087 nM.
The figure for `CCCCc1cc(N2CC[C@H](N)C2)nc(Nc2cccc(C#N)c2)n1` [Example 233, (S)-3-[4-(3-aminopyrrolidin-1-yl)-6-butylpyrimidin-2-ylamino]benzonitrile dihydrochloride] is 0.019 nM; for `CCCc1cc(N2CC[C@H](NCc3ccsc3)C2)nc(Nc2cccc(C#N)c2)n1` [Example 113, (S)-3-{4-propyl-6-[3-(thiophen-3-ylmethylamino)pyrrolidin-1-yl]pyrimidin-2-ylamino}benzonitrile] it is 0.016 nM; for `CCCc1cc(N2CCC[C@H]2CO)nc(Nc2ccc(N)c(C(F)(F)F)c2)n1` [Example 211] it is 0.019 nM.
To `CCCc1cc(N2CC[C@H](NC(=O)CO)C2)nc(Nc2ccc(C)c(Cl)c2)n1` [Example 480] belongs 0.032 nM.
The molecule `CCCc1cc(N2CC[C@H](NC(=O)CN)C2)nc(Nc2cccc(C#N)c2)n1` [Example 395] returned an EC50 of 0.082 nM.
In turn, `CCCc1cc(N2CC[C@H](NCc3ccc(N(C)C)cc3)C2)nc(Nc2cccc(C#N)c2)n1` [Example 110, (S)-3-(4-{3-[4-(dimethylamino)benzylamino]pyrrolidin-1-yl}-6-propylpyrimidin-2-ylamino)benzonitrile] gave an EC50 of 0.018 nM.
